7 compounds from patent US12612354B2, “Cyclopentenones derivatives and their use as antibiotics” (Centre National de la Recherche Scientifique (CNRS), priority 2020, dated 2026) can be followed below.

As usually defined, the inhibition of growth is the change of the read-out against control, counted positive when it falls.

The subject of one assay is Micrococcus luteus ATCC10240. The assay is described as follows: Petri dish inhibition zone method, % inhibition of growth. Type of assay: cell-based. As to conditions: 24 h, 100 μg of compound. The method, then: (§1) Pathogenic bacteria were revived by streaking bacteria on 100 mm Petri dishes containing the suitable medium recommended by ATCC protocol, overnight at 30 to 37° C.: Luria-Bertani Broth (LB, Difco, Thermo Fisher Scientific Inc.), Tryptic Soy Broth (TSB, Difco, Thermo Fisher Scientific Inc.), Nutrient Broth (NB, Difco, Thermo Fisher Scientific Inc.), supplemented with 2% of agar (Granulated Agar, Difco, Thermo Fisher Scientific Inc.). For each pathogen, several colonies were collected with a loop and transferred in 5 ml of sterile NB medium and incubated on a rotary shaker (130 rpm) overnight at 30 to 37° C. 150 mm Nutrient Broth Agar plates were swabbed with inocula and kept for 15 min for absorption. Pre-sterilized six-millimeter Whatman No. 1 discs were placed in the Petri dishes and 12.5, 25, 50 and 100 μg of the test compounds in DMSO (10 mg/ml) were applied to the sterile disc papers. The standard drug gentamycin (10 μg) was used as a positive reference standard to determine the sensitivity of each bacterial species and DMSO as a negative control. Then the plates were incubated at 30° or 37° C. for 24 h and inhibition diameters were measured. Compounds Ib, Ic, Ij, Ik, Il, Im, Ih, Ig, Ii, Id and If have also been tested on the following pathogenic bacteria in order to evaluate their inhibition efficacy by the Petri dish inhibition zone method: • Micrococcus luteus ATCC10240; • Bacillus subtilis ATCC6633; • Escherichia coli ATCC 25922. The percentage of inhibition growth at 100 μg of each tested compound has been determined.
Compound `O=C1C=C[C@@](O)(CO)[C@H]1c1ccccc1` (racemic) [If] yielded an inhibition of growth at 100 µg/disc of 21%.

`O=C1C=C[C@H](O)C1c1ccc2ccccc2c1` (mixture of isomers) [Il] displayed an inhibition of growth at 100 µg/disc of 50%.

`O=C1C=C[C@@](O)(CO)[C@H]1c1ccc2c(c1)OCO2` (racemic) [Ii] displayed an inhibition of growth at 100 µg/disc of 0%.

`COc1ccc([C@H]2C(=O)C=C[C@@]2(O)CO)cc1` (racemic) [Ih] came in with an inhibition of growth at 100 µg/disc of 0%.

For the compound `O=C1C=C[C@@](O)(CO)[C@H]1c1ccc(F)cc1` (racemic) [Ig], the inhibition of growth at 100 µg/disc turned out to be 0%.

On to `O=C1C=C[C@H](O)C1c1cccc2ccccc12` (mixture of isomers) [Im], for which the inhibition of growth at 100 µg/disc was 51%.

`COc1cccc(C2C(=O)C=C[C@@H]2O)c1` (mixture of isomers) [Ik] had an inhibition of growth at 100 µg/disc of 23%.

The next assay relates to Bacillus subtilis ATCC6633. Described as above. It is filed as cell-based. As to conditions: 24 h, 100 μg of compound. As for the experimental part: as §1
On to `O=C1C=C[C@@](O)(CO)[C@H]1c1ccccc1` (racemic) [If], for which the inhibition of growth at 100 µg/disc is 0%.

With `O=C1C=C[C@H](O)C1c1ccc2ccccc2c1` (mixture of isomers) [Il], the inhibition of growth at 100 µg/disc was found to be 57%.

Compound `O=C1C=C[C@@](O)(CO)[C@H]1c1ccc2c(c1)OCO2` (racemic) [Ii] showed an inhibition of growth at 100 µg/disc of 0%.

`COc1ccc([C@H]2C(=O)C=C[C@@]2(O)CO)cc1` (racemic) [Ih]: the inhibition of growth at 100 µg/disc is 0%.

Take `O=C1C=C[C@@](O)(CO)[C@H]1c1ccc(F)cc1` (racemic) [Ig]: the inhibition of growth at 100 µg/disc amounted to 18%.

Compound `O=C1C=C[C@H](O)C1c1cccc2ccccc12` (mixture of isomers) [Im] displayed an inhibition of growth at 100 µg/disc of 56%.

`COc1cccc(C2C(=O)C=C[C@@H]2O)c1` (mixture of isomers) [Ik] gave an inhibition of growth at 100 µg/disc of 48%.

The subject of the next assay is Escherichia coli ATCC 25922. The assay is described as follows: Kirby-Bauer disk diffusion susceptibility test (inhibition zone). It is filed as cell-based. As to conditions: ATCC25922, 24 h, 100 μg of compound. The method, then: FIG. 4: Kirby-Bauer Disk diffusion susceptibility test on Escherichia coli ATCC 25922 with compounds Ia and Ib at 12.5, 25, 50 and 100 μg and the reference gentamicin at 10 μg; left: graph representing the diameter of the inhibition zone as a function of each sample; right: photo of the petri dish illustrating the inhibition zones with Ia at 12.5, 25, 50 and 100 μg.
Pathogenic bacteria were revived by streaking bacteria on 100 mm Petri dishes containing the suitable medium recommended by ATCC protocol, overnight at 30 to 37° C.: Luria-Bertani Broth (LB, Difco, Thermo Fisher Scientific Inc.), Tryptic Soy Broth (TSB, Difco, Thermo Fisher Scientific Inc.), Nutrient Broth (NB, Difco, Thermo Fisher Scientific Inc.), supplemented with 2% of agar (Granulated Agar, Difco, Thermo Fisher Scientific Inc.).
For each pathogen, several colonies were collected with a loop and transferred in 5 ml of sterile NB medium and incubated on a rotary shaker (130 rpm) overnight at 30 to 37° C.
150 mm Nutrient Broth Agar plates were swabbed with inocula and kept for 15 min for absorption. Pre-sterilized six-millimeter Whatman No. 1 discs were placed in the Petri dishes and 12.5, 25, 50 and 100 μg of the test compounds in DMSO (10 mg/ml) were applied to the sterile disc papers. The standard drug gentamycin (10 μg) was used as a positive reference standard to determine the sensitivity of each bacterial species and DMSO as a negative control. Then the plates were incubated at 30° or 37° C. for 24 h and inhibition diameters were measured.
Compounds Ia to Ic have also been tested on the following pathogenic bacteria in order to evaluate their inhibition efficacy by the Petri dish inhibition zone method: • Staphylococcus aureus ATCC 25923—Gram-positive (compounds Ia, Ib and Ic tested) • Enterobacter cloacae ATCC 13047—Gram-negative (compounds Ia and Ib tested) • Acinetobacter baumannii ATCC 19606—Gram-negative (compounds Ib and Ic tested) • Escherichia coli ATCC 25922—Gram-negative (compounds Ia and Ib tested)
This technique enables to visualize the potential for inhibiting the growth of target pathogenic bacteria. A dose-response study at 12.5, 25, 50 and 100 μg of each compound has been carried out, comparing the inhibition zones with 10 μg gentamicin. […] Best results are obtained for Gran negative bacteria, especially Enterobacter cloacae as represented on FIG. 2.
Compounds Ib, Ic, Ij, Ik, Il, Im, Ih, Ig, Ii, Id and If have also been tested on the following pathogenic bacteria in order to evaluate their inhibition efficacy by the Petri dish inhibition zone method: • Micrococcus luteus ATCC10240; • Bacillus subtilis ATCC6633; • Escherichia coli ATCC 25922.
The percentage of inhibition growth at 100 μg of each tested compound has been determined.
A general note: In agar diffusion tests the substance spreads into inoculated agar from a disc or well.
`O=C1C=C[C@@](O)(CO)[C@H]1c1ccccc1` (racemic) [If] returned an inhibition of growth at 100 µg/disc of 57%.

Take `O=C1C=C[C@H](O)C1c1ccc2ccccc2c1` (mixture of isomers) [Il]: the inhibition of growth at 100 µg/disc amounted to 40%.

Take `O=C1C=C[C@@](O)(CO)[C@H]1c1ccc2c(c1)OCO2` (racemic) [Ii]: the inhibition of growth at 100 µg/disc amounted to 45%.

Compound `COc1ccc([C@H]2C(=O)C=C[C@@]2(O)CO)cc1` (racemic) [Ih] showed an inhibition of growth at 100 µg/disc of 55%.

With `O=C1C=C[C@@](O)(CO)[C@H]1c1ccc(F)cc1` (racemic) [Ig], the inhibition of growth at 100 µg/disc worked out at 55%.

In turn, `O=C1C=C[C@H](O)C1c1cccc2ccccc12` (mixture of isomers) [Im] displayed an inhibition of growth at 100 µg/disc of 47%.

In turn, `COc1cccc(C2C(=O)C=C[C@@H]2O)c1` (mixture of isomers) [Ik] displayed an inhibition of growth at 100 µg/disc of 42%.
